The results in this text go back to US12378250B2, “Tricyclic compound as IRAK4 inhibitor” (KOREA RESEARCH INSTITUTE OF CHEMICAL TECHNOLOGY, priority 2018, dated 2025).

One assay deals with T1, IRAK4 enzyme (Homo sapiens, UniProt Q9NWZ3).
T1 sequence (Q9NWZ3 1-460): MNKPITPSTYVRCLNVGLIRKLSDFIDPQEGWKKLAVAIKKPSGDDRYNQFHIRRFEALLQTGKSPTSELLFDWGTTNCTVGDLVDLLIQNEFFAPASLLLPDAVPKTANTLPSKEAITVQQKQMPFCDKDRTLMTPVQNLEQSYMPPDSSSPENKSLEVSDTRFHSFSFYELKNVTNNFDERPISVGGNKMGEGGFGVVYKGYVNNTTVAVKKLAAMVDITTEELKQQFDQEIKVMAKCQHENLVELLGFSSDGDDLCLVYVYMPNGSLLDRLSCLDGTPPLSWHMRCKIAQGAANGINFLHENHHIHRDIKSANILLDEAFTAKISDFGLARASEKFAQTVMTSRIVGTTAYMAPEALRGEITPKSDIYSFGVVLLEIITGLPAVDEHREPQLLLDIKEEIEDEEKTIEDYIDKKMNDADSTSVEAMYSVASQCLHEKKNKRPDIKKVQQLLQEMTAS
Briefly: IRAK4 enzyme inhibition degree (bead-based kinase assay, peptide substrate BMKC-2, 100 μM ATP). Particulars: compound 1 μM. The assay is classed as biochemical. The method in brief:
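IRAK4 (0.4 ng/μl stock) preincubated 10 min with compound, then 6 μM BMKC-2 peptide with 100 μM ATP (mix concentrations) for 60 min at room temperature; EDTA stop. Phospho-Thr antibody with AlphaScreen donor/acceptor beads detected product; % inhibition versus controls, IC50 by non-linear regression.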

Assay [1] has as its system ISG promoter, THP1-Lucia™ ISG cell line. Briefly: ISG promoter inhibition, THP1-Lucia ISG cell line. The assay is classed as cell-based. Particulars: 1 μg/ml Poly(dA:dT)/LyoVec, 24 hours, read-out: ISG, % inhibition degree. Summed up: (§1)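 THP1-Lucia cells (NF-κB line 1×10^4/well, ISG line 2×10^4/well) preincubated with compound for 30 minutes. Stimulation then used 100 ng/ml LPS (NF-κB) or 1 μg/ml Poly(dA:dT)/LyoVec (ISG) for 24 hours. Secreted luciferase in supernatant measured by Quanti-luc luminescence.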

The test system of assay [2] is TNF-α secretion, peripheral blood mononuclear cells (PBMCs). In words: Suppression of TNF-α secretion in LPS-treated PBMCs (ELISA). The assay is classed as cell-based. Particulars: PBMC, 100 ng/ml LPS, 24 hours, read-out: TNF-α, % inhibition degree. Summed up:
(§2)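 PBMCs (1×10^5 cells/well for TNF-α, 2×10^5 for IFN-α) preincubated 30 min with compound, then stimulated with 100 ng/ml LPS for 24 h (TNF-α) or 500 nM ODN2216 for 72 h (IFN-α). Cytokines in supernatants quantified by sandwich ELISA with TMB, absorbance 450/570 nm.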
(An ELISA detects its analyte on a solid surface through an enzyme-linked reagent.)

In assay [3] the test system is IFN-α secretion, peripheral blood mononuclear cells (PBMCs). Briefly: Suppression of IFN-α secretion in ODN2216-treated PBMCs (ELISA). The assay is classed as cell-based. Particulars: PBMC, 500 nM ODN2216, 72 hours, read-out: IFN-α, % inhibition degree. The method in brief:
as §2

Assay [4] concerns TNF-α in serum, LPS-induced systemic inflammatory disease. Briefly: Suppressive effects on LPS-induced systemic inflammatory disease in mice (serum TNF-α). The assay is classed as in vivo, C57BL/6 mice. Particulars: doses of 50 and 100 mg/kg, oral, 2 hours prior to LPS 15 mg/kg i.p. On the procedure: As experimental animals, 8-week-old C57BL/6 (20 to 23 g) mice were supplied from Orient Bio Co., Ltd. (Seongnam, Gyeonggi-do) and used. The mice were acclimatized for 2 weeks or more in an animal room of the Korea Research Institute of Chemical Technology, where temperature (22±1° C.) and humidity (50±10%) were automatically adjusted, and then used for experiments, and allowed to freely ingest water and feed. This animal experiment was performed with the approval of the Animal Care and Use Committee of the Korea Research Institute of Chemical Technology. A systemic inflammatory disease was induced by administering a dose of 15 mg/kg lipopolysaccharide (LPS, Sigma L2880) intraperitoneally to the mice. A test drug was suspended in a 10% Cremophor solution and administered orally 2 hours prior to LPS injection, the mice were anesthetized with isoflurane 1 hour after LPS administration, and blood was collected from the heart. Serum was obtained by centrifuging the collected blood at 13,000 rpm for 15 minutes, store at −20° C., and then taken if needed to measure the content of cytokine (TNF-α) in serum using an ELISA kit manufactured by BD Biosciences. […]

Assay [5] concerns NF-κB promoter, THP1-Lucia™ NF-κB cell line. In words: NF-κB promoter inhibition, THP1-Lucia NF-κB cell line. Format: cell-based. Particulars: 100 ng/ml LPS, 24 hours, read-out: NF-κB, % inhibition degree. The method in brief: as §1

For the compound `COc1cncc(-c2ccc3[nH]c4ncnc(N[C@H]5CC[C@H](N6CCOCC6)CC5)c4c3c2)c1` [Compound 6aad, 6-(5-methoxypyridin-3-yl)-N-(trans-4-morpholinocyclohexyl)-9H-pyrimido[4,5-b]indole-4-amine], the inhibition at 1 µM was determined as 100% at IRAK4 enzyme; 79% in assay [1] (1 μM); 105% in assay [2] (1 μM); 104% in assay [3] (1 μM); 78% in assay [5] (1 μM). Also, the inhibition at 0.1 µM came out at 37% in assay [1] (0.1 μM), 42% in assay [2] (0.1 μM), 31% in assay [3] (0.1 μM) and 33% in assay [5] (0.1 μM). Further, in assay [4], the “suppressive effect on systemic inflammation (serum TNF-α) compared to PF-06650833” value is “better suppressive effect than PF-06650833”.

Broadly, the inhibition is the drop in the measured response relative to a control, in per cent.
